IC50 and inhibition data for 37 molecules are collected here from US12492182B2, “Hydroxytriazine compounds and pharmaceutical use thereof” (Japan Tobacco Inc., priority 2015, dated 2025).

One assay has as its target T1, human mPGES-1 (Homo sapiens, UniProt O14684).
T1 construct: made in house; host or cells: Chinese hamster ovary-derived cells (FreeStyle CHO-S), transient transfection of pcDNA3.1(+)/human mPGES-1; microsome fraction
T1 sequence (O14684 1-152): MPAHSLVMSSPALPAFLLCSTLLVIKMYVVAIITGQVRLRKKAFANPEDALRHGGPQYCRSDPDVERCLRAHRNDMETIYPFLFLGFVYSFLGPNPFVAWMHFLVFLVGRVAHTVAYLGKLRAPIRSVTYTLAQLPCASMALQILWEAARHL
Briefly: Evaluation of human mPGES-1 enzyme inhibitory activity (HTRF measurement of PGE2). It counts as biochemical. The following applies: IC50 value; microsome fraction of CHO-S cells expressing human mPGES-1, PGH2 substrate, PGE2 by HTRF; read-out: humans mPGES-1 enzyme inhibitory activity. The procedure, abridged: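 Enzyme source was a microsome fraction from CHO-S cells transfected with human mPGES-1, diluted to 5 μg/mL protein in reduced GSH (12.5 mmol/L KPB), preincubated with compound for 10 min at room temperature with 2% final DMSO. Reaction started with PGH2 and run 45 seconds at room temperature. PGE2 measured by HTRF.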
A general note: Time-resolved FRET reads energy transfer from a long-lived donor to a nearby acceptor.

The test system of another assay is A549 cell. Briefly: Evaluation of PGE2 production inhibitory action using A549 cell (IL-1β stimulated). Format: cell-based, human. The following applies: Homo sapiens; for IC50: A549, A549 cell, recombinant human IL-1β stimulation, read-out: cell PGE2 production inhibitory activity (IC50 value). The essentials:
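A549 cells (human lung cancer) in F-12K with 2% FBS were preincubated with test article for 30 min, then stimulated with IL-1β (1 ng/mL final) for 18 hr at 37 °C; 0.5% DMSO final. Supernatant PGE2 was measured by HTRF against a standard curve; inhibition is relative to vehicle and unstimulated blank wells.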

As for `COCCCCOc1ccc(-c2nc(O)nc(-c3cc(CNC(=O)C(C)(C)C(F)(F)F)ccc3Cl)n2)cn1` [Example 61], the results for the IC50 on human mPGES-1 and with A549 cell were 0.5 nM and 79 nM, respectively.

For `COc1ncc(-c2nc(O)nc(-c3cc(CNC(=O)C4(C(F)(F)F)CCCCC4)ccc3Cl)n2)cc1C(C)C` [Example 62], the figures for the IC50 on human mPGES-1 and in the assay on A549 cell were 1 nM and 50 nM, respectively.

As to `CC1(c2cccc(-c3nc(O)nc(-c4cc(CNC(=O)C5(C(F)(F)F)CCCC5)ccc4Cl)n3)c2)CC1` [Example 63], the values for the IC50 on human mPGES-1 and in the assay on A549 cell were 1.7 nM and 14 nM, respectively.

On to `CC1(c2cccc(-c3nc(O)nc(-c4cc(CNC(=O)C5(C(F)(F)F)CCCCC5)ccc4Cl)n3)c2)CC1` [Example 64], for which the IC50 on human mPGES-1 was 1.6 nM; in the assay with A549 cell, 5.3 nM.

Turning to `CO[C@](C)(C(=O)NCc1ccc(Cl)c(-c2nc(O)nc(-c3cccc(C4(C)CC4)c3)n2)c1)C(F)(F)F` [Example 65], the results for the IC50 at human mPGES-1 and in the assay on A549 cell were 1.1 nM and 9.7 nM, respectively.

In the case of `CC(C)(C)c1cc(-c2nc(O)nc(-c3cc(CNC(=O)C(C)(C)C(F)(F)F)ccc3Cl)n2)ccc1F` [Example 67], the IC50 on human mPGES-1 amounted to 2.8 nM; with A549 cell, 3.9 nM.

`CCOCCCOc1ccc(-c2nc(O)nc(-c3cc(CNC(=O)C4(C(F)(F)F)CCCCC4)ccc3Cl)n2)cn1` [Example 68]: the IC50 at human mPGES-1 worked out at 0.6 nM; in the assay with A549 cell, 11 nM.

On to `CCCOCCOc1ccc(-c2nc(O)nc(-c3cc(CNC(=O)C4(C(F)(F)F)CCCCC4)ccc3Cl)n2)cn1` [Example 69], for which the IC50 at human mPGES-1 stood at 2.3 nM; in the assay with A549 cell it was 8.1 nM.

On to `CC(C)c1cccc(-c2nc(O)nc(-c3cc(CNC(=O)C(C)(C)CF)ccc3Cl)n2)c1` [Example 70], for which the IC50 at human mPGES-1 stood at 1.5 nM; in the assay with A549 cell, 56 nM.

As to `CCCc1cc(-c2nc(O)nc(-c3cc(CNC(=O)C4(C(F)(F)F)CCCCC4)ccc3Cl)n2)cnc1OCC` [Example 72], the IC50 stood at 5.3 nM on human mPGES-1 and 5.9 nM in the assay with A549 cell.

Regarding `CCCc1cc(-c2nc(O)nc(-c3cc(CNC(=O)C(C)(C)C(F)(F)F)ccc3Cl)n2)cnc1OCC` [Example 73], the figures for the IC50 on human mPGES-1 and with A549 cell were 4.2 nM and > 30 nM, respectively. For the same molecule, the inhibition at 0.03 µM in the assay with A549 cell (A549 cell, IL-1β stimulation, at the highest concentration given (0.03 μM), read-out: cell PGE2 production inhibitory activity (%), printed in parentheses after the > bound) stood at 47%.

On to `CO[C@@](C)(C(=O)NCc1ccc(Cl)c(-c2nc(O)nc(-c3cccc(C(C)C)c3)n2)c1)C(F)(F)F` [Example 74], for which the results for the IC50 on human mPGES-1 and in the assay on A549 cell were 1.3 nM and 29 nM, respectively.

For the molecule `CCC(CC)(OC)C(=O)NCc1ccc(Cl)c(-c2nc(O)nc(-c3cccc(C(C)C)c3)n2)c1` [Example 75], the values for the IC50 at human mPGES-1 and with A549 cell were 1.8 nM and 32 nM, respectively.

On to `CC(C)c1cccc(-c2nc(O)nc(-c3cc(CNC(=O)C(C)(C)CC(F)(F)F)ccc3Cl)n2)c1` [Example 76], for which the IC50 at human mPGES-1 came to 1.3 nM; in the assay with A549 cell it was 88 nM.

For the molecule `CC(C)c1cccc(-c2nc(O)nc(-c3cc(CNC(=O)C(C)(C)C(F)F)ccc3Cl)n2)c1` [Example 77], the IC50 is 0.8 nM on human mPGES-1 and 44 nM in the assay with A549 cell.

Consider `CCC[C@@H](C)Oc1ccc(-c2nc(O)nc(-c3cc(CNC(=O)C(C)(C)OC)ccc3Cl)n2)cn1` [Example 78], for which the results for the IC50 at human mPGES-1 and with A549 cell were 1.2 nM and 9.2 nM, respectively.

As to `CCC[C@@H](C)Oc1ccc(-c2nc(O)nc(-c3cc(CNC(=O)[C@@](C)(OC)C(F)(F)F)ccc3Cl)n2)cn1` [Example 80], the figures for the IC50 on human mPGES-1 and in the assay with A549 cell were 2.7 nM and 2 nM, respectively.

Consider `CCCCCCOc1ccc(-c2nc(O)nc(-c3cc(CNC(=O)C(CC)(CC)OC)ccc3Cl)n2)cn1` [Example 82], for which the figures for the IC50 on human mPGES-1 and in the assay with A549 cell were 7.2 nM and 2.2 nM, respectively.

On to `CCCCCCOc1ccc(-c2nc(O)nc(-c3cc(CNC(=O)[C@@](C)(OC)C(F)(F)F)ccc3Cl)n2)cn1` [Example 83], for which the IC50 is 5 nM at human mPGES-1 and 2.7 nM with A549 cell.

In the case of `CCCCCCOc1ccc(-c2nc(O)nc(-c3cc(CNC(=O)C(C)(C)CF)ccc3Cl)n2)cn1` [Example 84], the IC50 on human mPGES-1 was determined as 2 nM; in the assay with A549 cell, 6 nM.

With `CCCCCCOc1ccc(-c2nc(O)nc(-c3cc(CNC(=O)C(C)(C)C(F)F)ccc3Cl)n2)cn1` [Example 85], the IC50 was 4.9 nM at human mPGES-1 and 3.5 nM with A549 cell.

With `CCC[C@H](C)Oc1ccc(-c2nc(O)nc(-c3cc(CNC(=O)C(C)(C)C(F)(F)F)ccc3Cl)n2)cn1` [Example 86], the IC50 was found to be 1.8 nM on human mPGES-1 and 2.1 nM in the assay with A549 cell.

On to `CC(C)(C)c1cc(-c2nc(O)nc(-c3cc(CNC(=O)C(C)(C)C(F)(F)F)ccc3Cl)n2)ccc1Cl` [Example 87], for which the values for the IC50 on human mPGES-1 and in the assay on A549 cell were 5.2 nM and 2.9 nM, respectively.

Take `CC(C)c1cc(-c2nc(O)nc(-c3cc(CNC(=O)C(C)(C(F)(F)F)C(F)(F)F)ccc3Cl)n2)ccc1Cl` [Example 88]: the results for the IC50 on human mPGES-1 and in the assay with A549 cell were 19 nM and 1.6 nM, respectively.

For `CC1(c2cccc(-c3nc(O)nc(-c4cc(CNC(=O)C(C)(C(F)(F)F)C(F)(F)F)ccc4Cl)n3)c2)CC1` [Example 89], the IC50 came to 3.7 nM on human mPGES-1 and 2.5 nM with A549 cell.

On to `CC(C)c1cccc(-c2nc(O)nc(-c3cc(CNC(=O)C(C)(C(F)(F)F)C(F)(F)F)ccc3Cl)n2)c1` [Example 90], for which the IC50 on human mPGES-1 amounted to 2.1 nM; in the assay on A549 cell it was 3.9 nM.

For `CC(C)(C)c1cccc(-c2nc(O)nc(-c3cc(CNC(=O)C(C)(C(F)(F)F)C(F)(F)F)ccc3Cl)n2)c1` [Example 91], the IC50 at human mPGES-1 amounted to 4.6 nM; in the assay on A549 cell it was 4 nM.

With `CC(C)c1cccc(-c2nc(O)nc(-c3cc(CNC(=O)C4(CF)CCCC4)ccc3Cl)n2)c1` [Example 92], the figures for the IC50 at human mPGES-1 and in the assay with A549 cell were 0.5 nM and 90 nM, respectively.

Take `CC(C)(C)c1cccc(-c2nc(O)nc(-c3cc(CNC(=O)C4(CF)CCCC4)ccc3Cl)n2)c1` [Example 93]: the IC50 on human mPGES-1 worked out at 1.3 nM; with A549 cell, 30 nM.

Turning to `CC1(c2cccc(-c3nc(O)nc(-c4cc(CNC(=O)C5(CF)CCCC5)ccc4Cl)n3)c2)CC1` [Example 94], the IC50 on human mPGES-1 came out at 1 nM; with A549 cell, 59 nM.

For the molecule `CC(C)c1cc(-c2nc(O)nc(-c3cc(CNC(=O)C4(CF)CCCC4)ccc3Cl)n2)ccc1Cl` [Example 95], the IC50 on human mPGES-1 is 1.9 nM; in the assay with A549 cell, 17 nM.

Turning to `CC(C)c1cccc(-c2nc(O)nc(-c3cc(CNC(=O)C4(C(F)F)CCCC4)ccc3Cl)n2)c1` [Example 96], the IC50 at human mPGES-1 was 0.8 nM; in the assay with A549 cell, 61 nM.

Turning to `CC(C)c1cc(-c2nc(O)nc(-c3cc(CNC(=O)C4(C(F)F)CCCC4)ccc3Cl)n2)ccc1Cl` [Example 97], the IC50 at human mPGES-1 worked out at 3.8 nM; with A549 cell, 9 nM.

For `CC(C)c1cccc(-c2nc(O)nc(-c3cc(CNC(=O)C4(CF)CCCCC4)ccc3Cl)n2)c1` [Example 98], the IC50 was found to be 1.2 nM on human mPGES-1 and 43 nM in the assay on A549 cell.

Regarding `CC(C)(C)c1cccc(-c2nc(O)nc(-c3cc(CNC(=O)C4(CF)CCCCC4)ccc3Cl)n2)c1` [Example 99], the results for the IC50 at human mPGES-1 and in the assay on A549 cell were 1.7 nM and 11 nM, respectively.

As for `CC1(c2cccc(-c3nc(O)nc(-c4cc(CNC(=O)C5(CF)CCCCC5)ccc4Cl)n3)c2)CC1` [Example 100], the IC50 on human mPGES-1 stood at 0.9 nM; with A549 cell, 43 nM.

On to `CC(C)c1cc(-c2nc(O)nc(-c3cc(CNC(=O)C4(CF)CCCCC4)ccc3Cl)n2)ccc1Cl` [Example 101], for which the figures for the IC50 on human mPGES-1 and in the assay on A549 cell were 2.1 nM and 7.9 nM, respectively.
